The values that follow come from article PMC5374412, “Development of Pharmacophore Model for Indeno[1,2-b]indoles as Human Protein Kinase CK2 Inhibitors and Database Mining” (Pharmaceuticals, 2017).

The experiment deals with T1, human protein kinase CK2 (holoenzyme) (Homo sapiens, UniProt P68400).
T1 construct: gene CSNK2A1; CK2 holoenzyme, recombinant, expressed in E. coli; with CK2 regulatory subunit beta (CSNK2B), as part of the holoenzyme
Nature of the experiment: capillary electrophoresis-based kinase activity assay, peptide substrate RRRDDDSDDD
Type of experiment: biochemical.

T1 sequence (P68400 whole entry): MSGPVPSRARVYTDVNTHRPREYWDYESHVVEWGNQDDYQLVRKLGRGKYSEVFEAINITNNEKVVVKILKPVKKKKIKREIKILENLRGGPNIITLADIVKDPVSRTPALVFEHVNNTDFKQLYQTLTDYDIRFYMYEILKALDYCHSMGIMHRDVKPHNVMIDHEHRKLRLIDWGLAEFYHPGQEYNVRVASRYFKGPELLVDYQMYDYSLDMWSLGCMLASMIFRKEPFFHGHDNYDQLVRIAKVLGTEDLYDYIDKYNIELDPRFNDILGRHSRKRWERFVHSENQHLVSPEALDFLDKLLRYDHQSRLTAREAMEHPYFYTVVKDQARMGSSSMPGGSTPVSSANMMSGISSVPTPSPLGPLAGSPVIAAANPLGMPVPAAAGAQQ
T1 sequence (P67870 2-215 partner): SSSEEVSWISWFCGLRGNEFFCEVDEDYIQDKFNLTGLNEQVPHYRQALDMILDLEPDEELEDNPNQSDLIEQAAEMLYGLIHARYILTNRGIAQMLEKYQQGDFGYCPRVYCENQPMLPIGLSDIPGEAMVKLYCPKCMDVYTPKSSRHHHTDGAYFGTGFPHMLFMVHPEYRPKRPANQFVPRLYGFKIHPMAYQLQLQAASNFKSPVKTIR

`COC1=CC(=O)c2c(c(O)c3oc4cc(OC)cc(C)c4c(=O)c3c2O)C1=O` [ZINC05765165, 6,11-dihydroxy-3,8-dimethoxy-1-methylbenzo[b]xanthene-7,10,12-trione]: 1240 nM corresponded to half-maximal inhibition (IC50).
